Columns and labels:
clinical = conditions: male, human, in vivo
Excerpt: FIG. 3 ethanol concurrency test (simultaneously performed on the same human subject during a single experimental session) in a graphical representation
The following TABLE 1 of results describes the FIG. 3 curves:
The INTOXIMETER EC/IR 3000, which was used for the data presented in the TABLE 1, was made by Intoximeter, Inc. of St. Louis, Mo. The transcutaneous ethanol sensors (TES #33, #39) were made by Giner Inc. of Waltham, Mass.

[1] = humans, routine clinical experiments
Excerpt: This tool is applicable no matter which technique or equipment is used to obtain the initial readings.

With `CCO` [ethanol] the half-life (clinical) was 1.48 h and the “Index-K efficiency corridor for alcohol catabolism” value [1] was “up to 3.4”.

— US20030199098A1, “Advanced tool for the quantification uniformity within biological processes and conversions” (priority 2000, published 2003)
